Patent publication US7345065B2, “Methods and compositions for alleviating pain” (Allergan, Inc., priority 2002, dated 2008)

How the values were obtained:
rat α-2B (RNG gene) = target: T1, rat α-2B (RNG gene) (Rattus norvegicus, UniProt P19328); assay: RSAT assay, α-2B receptor; format: cell-based; conditions: for EC50: NA = not active (EC50 ≧ 10,000); for fold greater activity at the α-2B receptor than the α-2C receptor: RSAT; for Emax: read-out: % efficacy 2B
T1 construct: expressed in transfected cells; host or cells: NIH-3T3
T1 sequence (P19328 1-453): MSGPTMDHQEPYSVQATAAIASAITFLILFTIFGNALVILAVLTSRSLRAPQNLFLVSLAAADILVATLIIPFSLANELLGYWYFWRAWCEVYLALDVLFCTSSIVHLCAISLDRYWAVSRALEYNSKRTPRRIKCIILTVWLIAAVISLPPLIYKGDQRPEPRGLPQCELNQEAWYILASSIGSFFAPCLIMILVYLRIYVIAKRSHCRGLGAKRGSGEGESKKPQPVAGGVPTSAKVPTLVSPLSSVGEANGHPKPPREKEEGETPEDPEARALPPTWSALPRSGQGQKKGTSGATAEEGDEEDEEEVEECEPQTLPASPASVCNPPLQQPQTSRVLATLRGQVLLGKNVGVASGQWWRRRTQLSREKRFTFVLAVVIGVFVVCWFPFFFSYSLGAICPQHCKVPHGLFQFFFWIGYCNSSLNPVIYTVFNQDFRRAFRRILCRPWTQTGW
Description: Agonist and antagonist activity, including selectivity and specificity, can be characterized using any of a variety of routine assays, including, without limitation, Receptor Selection and Amplification Technology (RSAT) assays (Messier et al., Pharmacol. Toxicol. 76:308-11 (1995); Conklin et al., Nature 363:274-6 (1993)); cyclic AMP assays (Shimizu et al., J. Neurochem. 16:1609-1619 (1969)); and cytosensor microphysiometry assays (Neve et al., J. Biol. Chem. 267:25748-25753 (1992)). Such assays generally are performed using cells that naturally express only a single α-adrenergic receptor subtype, or using transfected cells expressing a single recombinant α-adrenergic receptor subtype. The adrenergic receptor can be a human receptor or homolog thereof having a similar pharmacology. As disclosed herein, RSAT assays were performed using cells transiently transfected with human α-2A (c10 gene); rat α-2B (RNG gene); human α-2C (c4 gene); bovine α-1A; hamster α-1B; and rat α-1D.
The RSAT assay measures receptor-mediated loss of contact inhibition resulting in selective proliferation of receptor-containing cells in a mixed population of confluent cells. The increase in cell number is assessed with an appropriate detectable marker gene such as β-galactosidase, if desired, in a high throughput or ultra high throughput assay format. Receptors that activate the G protein, Gq, elicit the proliferative response. α-adrenergic receptors, which normally couple to Gi, activate the RSAT response when coexpressed with a hybrid Gq protein containing a Gi receptor recognition domain, designated Gq/i5.
As an example, an RSAT assay can be performed essentially as follows. NIH-3T3 cells are plated at a density of 2×10^6 cells in 15 cm dishes and maintained in Dulbecco's modified Eagle's medium supplemented with 10% calf serum. One day later, cells are cotransfected by calcium phosphate precipitation with mammalian expression plasmids encoding p-SV-β-galactosidase (5-10 μg), receptor (1-2 μg) and G protein (1-2 μg). Carrier DNA, for example 40 μg salmon sperm DNA, also can be included to increase transfection efficiency. Fresh media is added on the following day; one to two days later, cells are harvested and frozen in 50 assay aliquots. Transfected cells are thawed, and 100 μl of cells added to 100 μl aliquots of compound to be tested, with various concentrations assayed in triplicate, for example, in 96-well plates. Incubation continues for 72 to 96 hours at 37°. After washing with phosphate-buffered saline, β-galactosidase activity is determined by adding 200 μl of chromogenic substrate (3.5 mM O-nitrophenyl-β-D-galactopyranoside/0.5% NP-40 in phosphate buffered saline), incubating overnight at 30°, and measuring optical density at 420 nm. The absorbancy is a measure of enzyme activity, which depends on cell number and reflects receptor-mediated cell proliferation. The EC50 and maximal effect (efficacy) of each drug at each receptor is determined.

Chung model rats = assay: Chung rat nerve ligation model, tactile allodynia reversal (Von Frey); format: in vivo; conditions: for allodynia reversal, single oral dose: Compound 3 30 μg/kg, Compound 11 0.1 mg/kg, Compound 4 0.3 mg/kg; for Peak allodynia reversal (dose): intraperitoneal injection, dose (3-300 μg/kg); for allodynia reversal: osmotic minipump 0.1 mg/kg/hour for five days; for persistence of analgesic effects after treatment: subcutaneous osmotic minipump 0.1 mg/kg/hour, seven days; for maintenance of the analgesic effect after minipump removal: osmotic minipump for five days, four week test period
Description: The Chung rat nerve ligation model is a well accepted model of peripheral neuropathic pain. In the Chung model, partial ligation of left spinal nerves L-5 and L-6 produces a long-lasting hypersensitivity to light touch on the affected left foot. The hypersensitivity is similar to pain experienced by humans with the neuropathic condition of causalgia (Kim and Chung, Pain 50:355-363 (1992)).
Chung rat surgeries of about 20 minutes duration were performed essentially as follows. Male Sprague-Dawley rats weighing 100 to 120 grams were anesthetized with isofluorane. After shaving and preparing the surgical site with betadine, an incision was made from thoracic vertebra XIII down toward the sacrum, and muscle separated from spinal vertebra (left side) at the L4-S2 levels. The L6 vertebra were located, and the transverse process carefully removed with a small rongeur to visually identify the L4-L6 spinal nerves. L5 and L6 spinal nerves were isolated and tightly ligated with 6-0 silk thread; the wound was sutured after complete hemostasis was confirmed. A small amount of antibiotic ointment was applied to the incised area before transferring the animals to a plastic recovery cage under a regulated heat-temperature lamp. Animals were not treated with any topical or local anesthetics post-operatively.
Assessment of pain in Chung model rats was performed by applying a light tactile stimulus (Von Frey hair) to the affected surgical paw as follows. A 50% pain threshold was established by applying the Von Frey hair in an up-and-down manner to the plantar surface of the surgical paw with just enough force to bend them. A positive response was recorded if the paw was withdrawn sharply. The 50% paw withdrawal threshold was determined using the method of Dixon et al., Ann. Rev. Pharmacol. Toxicol. 20:441-462 (1980). The post-drug threshold was compared to the pre-drug threshold, and the precent reversal of tactile sensitivity calculated based on a normal threshold of 15.1 grams. The results were expressed as % allodynia reversal, reflecting the percentage reversal of pain threshold relative to a normal rat (100%).
Chung surgeries were performed, and pain assessed as described above. Drugs administered via osmotic minipump were delivered as follows. ALZET (Cupertino, Calif.) minipumps (Model #1007D) were implanted subcutaneously on the rats' back between the shoulder blades. Pumps were filled with test solution prior to surgery, which was performed with aseptic procedures and sterilized surgical instruments. After anesthetization with isoflorane and midline incision between the shoulder blades through the muscle, a subcutaneous pocket was exposed. The minipump was inserted into the exposed pocket, before stapling the wounds closed and allowing animals to recover under a warming light.
ALZET osmotic minipumps (model 1007D) hold a total volume of 100 μl and delivered drug at the set rat of 0.5 μl per hour the indicated time period. Drugs were administered at the indicated rate, typically 100 μg/hr/kg, dissolved in 50% DMSO, with the concentration of drug in the pump varied depending on animal weight. […]

EC50 (rat α-2B (RNG gene)) [nM]	fold greater activity at the α-2B receptor than the α-2C receptor (rat α-2B (RNG gene))	Emax (rat α-2B (RNG gene)) [%]	SMILES	allodynia reversal, single oral dose (Chung model rats)	Peak allodynia reversal (dose) (Chung model rats)	allodynia reversal (Chung model rats)	analgesia, agonist given alone (Chung model rats; peripheral (intraperitoneal) administration, Chung rats, Compound 2 100 μg/kg, clonidine 100 μg/kg, Compound 3 1 to 1000 μg/kg)	time by which the analgesic effect was gone (Chung model rats; single oral dose)	time to analgesic effect (Chung model rats; single oral dose)	persistence of analgesic effects after treatment (Chung model rats)	maintenance of the analgesic effect after minipump removal (Chung model rats)	oral dose sufficient for an analgesic effect (Chung model rats; single oral dose) [µg/kg]	allodynia reversal and duration at 1 mg/kg oral (Chung model rats; single oral dose 1 mg/kg, compared with 0.3 mg/kg)
24	about 100 fold	90	O=C1c2ccccc2CCC1Cc1c[nH]c(=S)[nH]1 (racemic) [Compound 3]	70-100%	81% +/− 10%	about 80%	significant analgesia without producing sedation	≤ 2 h	less than 20 minutes	continued for over a month after treatment was concluded	–	–	–
15	more than 10 fold	100	O=c1[nH]cc(CC2CCc3cc(F)ccc32)[nH]1 (stereo not drawn) [Compound 4]	60-80%	80% +/− 6.5%	about 80%	–	essentially no pain relief was observed after four hours	–	continued for over a month after treatment was concluded	maintained at essentially the same level over the entire four week test period	30	the allodynia was reversed to a greater extent, and the pain relief was of longer duration
42	–	80	S=c1[nH]cc(CC2CC=CC2)[nH]1 [Compound 11]	60-90%	–	about 80%	–	≤ 2 h	–	–	maintained at essentially the same level over the entire four week test period	–	–
